Target: T1, DPP-IV from porcine kidneys (Sus scrofa, UniProt P22411)
T1 construct: DPP-IV from porcine kidneys (Sigma, Munich); purchased Sigma, Munich; host or cells: porcine kidney (tissue-derived enzyme)
Experiment: Measurement of the DPP-IV activity (fluorimetric conversion of H-Ala-Pro-AFC)
Format: biochemical
Details: at 30 μm compound; DPP-IV 1 mU/ml, H-Ala-Pro-AFC 15 μm, Tris/HCl pH 7.4, room temperature
Method: Measurement of the DPP-IV Activity:
DPP-IV from porcine kidneys (Sigma, Munich)
H-Ala-Pro-AFC (Bachem, Weil am Rhein)
DPP-IV (1 mU/ml, end concentration)
H-Ala-Pro-AFC (15 μm end concentration) in Tris/HCl (40 mM, pH 7.4), total volume 0.2 ml
The reaction was performed at room temperature for different periods (typically 10 minutes) and stopped at the end of the reaction by adding 20 μl of ZnCl2 (1 M). The conversion of H-Ala-Pro-AFC was determined fluorimetrically by measuring the emission at 535 nm on excitation at 405 nm. In the case of addition of inhibitors, the buffer volume added was adjusted such that a total volume of the test mixture of 200 μl was maintained.
% inhibition at a fixed concentration was calculated as follows: (1-enzyme activityinhibited reaction/enzyme activityuninhibited reaction)×100

T1 sequence (P22411 whole entry): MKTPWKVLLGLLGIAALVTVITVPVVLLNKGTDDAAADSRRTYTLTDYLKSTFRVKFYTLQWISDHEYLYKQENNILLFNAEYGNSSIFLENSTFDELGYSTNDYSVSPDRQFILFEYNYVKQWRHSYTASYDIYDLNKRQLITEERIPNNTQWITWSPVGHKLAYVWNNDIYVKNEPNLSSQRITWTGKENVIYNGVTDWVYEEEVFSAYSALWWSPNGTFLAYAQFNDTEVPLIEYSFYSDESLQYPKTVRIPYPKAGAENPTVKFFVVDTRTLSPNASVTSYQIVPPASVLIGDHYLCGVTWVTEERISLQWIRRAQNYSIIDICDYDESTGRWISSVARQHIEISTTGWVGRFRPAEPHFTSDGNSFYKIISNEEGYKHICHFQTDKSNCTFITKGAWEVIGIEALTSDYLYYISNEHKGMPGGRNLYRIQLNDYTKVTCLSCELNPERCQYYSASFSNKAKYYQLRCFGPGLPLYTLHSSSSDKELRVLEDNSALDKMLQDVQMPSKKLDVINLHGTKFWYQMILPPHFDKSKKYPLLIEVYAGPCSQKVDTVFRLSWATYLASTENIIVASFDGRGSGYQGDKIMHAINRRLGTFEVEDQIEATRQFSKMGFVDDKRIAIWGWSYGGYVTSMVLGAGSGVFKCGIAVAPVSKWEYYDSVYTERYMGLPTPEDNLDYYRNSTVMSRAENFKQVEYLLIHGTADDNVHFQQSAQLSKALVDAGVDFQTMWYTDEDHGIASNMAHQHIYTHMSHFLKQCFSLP

% inhibition at 30 μm: 25%
Structure (SMILES): CC(C)=CCn1c(N2CCC3CNCC32)nc2ccc(NC(=O)c3ccccc3)cc21 (stereo not shown) [Example 1]
